Results: publication PMC11053681, “Gold(I) and Silver(I) Complexes Containing Hybrid Sulfonamide/Thiourea Ligands as Potential Leishmanicidal Agents” (Pharmaceutics, 2024)
“Also recorded” adds a separate entry of the source.

Tests used:
Vero cells = test: Cytotoxicity assay on Vero cells (resazurin); assay type: cell-based, African green monkey; conditions: 24 h treatment
Method: For the experiment, Vero cells (ATCC CRL-1587) were used in Roswell Parl Memorial Institute (RPMI) medium with 10% fetal bovine serum (FBS) (RPMI 10%) and 20 μg/mL of Gentamicin. They were cultivated in culture bottles of […] and kept in an oven at 37 °C with 5% carbon dioxide (CO2). When picked or used on the day of the experiment, the cells were detached from the wall of the bottles with saline and 1X trypsin/EDTA. To find out how many cells there were in the bottle, it was diluted in Turkey liquid and then we proceeded with the counting in the Neubauer Chamber to calculate the desired concentrations. The Vero cells were plated at […] cells per well, in 96-well plates, and kept in an incubator with 5% CO2 at 37 °C for 24 h. Then, the compounds were added in triplicate, starting at a concentration of 500 µM, with serial dilution being performed up to a concentration of 3.9 µM [54]. The treatment was carried out for 24 h, and, after adding 5 µL of resazurin, the fluorescence was read using a spectrofluorometer (EnSpire Perkin-Elmer, Waltham, MA, USA).

[1] = Solubility in buffer for the fluorescence experiments; assay type: physicochemical; conditions: Tris-HCl buffer
Method: The compounds were solubilized in DMSO and then we made successive dilutions in a Tris-HCl 25 mmol L^−1 buffer, pH 8.0, containing 100 mmol L^−1 of NaCl. For all experiments, the final concentration of DMSO was kept constant and equal to 2.5%. Solutions with increasing concentrations of ligand and constant concentration of LbOYE (1 µmol L^−1) were prepared, which were kept at 25 °C for a period of 1h before acquisition of fluorescence emission spectra.
After the synthesis and structural characterization of the compounds, studies of interaction of the compounds and the recombinant LbOYE were carried out by fluorescence measurements.

Leishmania infantum = test: Leishmanicidal activity against promastigotes (resazurin); assay type: cell-based; conditions: for IC50: promastigote form, 24 h treatment, resazurin, read-out: IC50 L. infantum; for SI L. infantum: selectivity index = CC50 (Vero) / IC50 (L. infantum promastigotes)
Method: (§1) The Leishmania infantum and Leishmania braziliensis strains were maintained in Schneider medium supplemented with 20% of SFB (Schneider 20%), cultivated in […] bottles and stored at 28 °C in a BOD oven. For the assays, parasites at the 5th day stationary growth phase were used.
(§2) The promastigotes metacyclic form of Leishmania infantum and Leishmania braziliensis were first filtered with an insulin syringe to break up rosettes and, then, were isolated from the culture in the stationary phase by centrifugation of 400× g for 4 min at a temperature of 4 °C [53]. The supernatant was subjected to a new centrifugation, heavier, of 2000× g for 30 min, also at 4 °C. The supernatant was discarded and the cell pallet formed from this centrifugation was resuspended in 10 mL of 10% Schneider medium. The process ensured the removal of cellular debris and dead parasites, as well as possible crystals from the culture medium, so that the quality of the experiment was guaranteed. Then, the promastigotes were diluted to 1:10 in paraformaldehyde (PFA) for counting in a Neubauer Chamber, with the concentrations adjusted for each experiment.
(§3) An amount of 1 × 10^7 parasites per well was used. The parasites were plated in 96-well plates. Then, the compounds were added in triplicate, starting at a concentration of 500 µM, with serial dilutions being performed up to a concentration of 3.9 µM [53]. The treatment was carried out for 24 h and, after adding 5 µL of resazurin, the fluorescence was read using a Enspire model spectrofluorometer (Perkin-Elmer, Waltham, MA, USA).

Leishmania braziliensis = test: as above; assay type: cell-based; conditions: for IC50: promastigote form, 24 h treatment, resazurin, read-out: IC50 L. braziliensis; for SI L. braziliensis: selectivity index = CC50 (Vero) / IC50 (L. braziliensis promastigotes)
Method: as §1, §2, §3

[2] = tested on: RAW macrophages infected with Leishmania infantum; test: Infectivity test / infection rate in RAW macrophages; assay type: cell-based; conditions: three concentrations (below IC50, IC50, above IC50), 24 h treatment
Method: For the infection of RAW macrophages adhered to the plates, we used parasites in the promastigote form of Leishmania infantum, in the stationary phase, in a ratio of 10:1 (promastigotes/macrophages).
Macrophages were plated in the amount of 5 × 10^4 cells per well, in 96-well plates, which were kept in a CO2 oven at 37 °C for 24 h. The parasites were plated at a concentration of 10:1. The plates were kept in a CO2 oven for 12 h until the parasites infected the cells. […] Plates were fixed with paraformol for further evaluation. Plaques were evaluated by counting parasites within 200 cells under the EVOS Cell Imaging System (Thermo Scientific, Waltham, MA, USA) microscope by staining with propidium iodide.
In view of the data obtained, the six most promising compounds (HL1^Ch, HL2^Ph, Ag3, Ag4, Ag6 and Au2) were selected for carrying out the infection rate test against the L. infantum parasite. […] This test was performed at four stages. The first step determined the percentage of the amount in 200 infected macrophages per parasite, the second determined the percentage of parasites that infects 100 cells/macrophages, the third determined the average percentage of parasites that infects 200 cells/macrophages and, finally, the fourth step indicated the infection rate, that is, the result of the amount of Leishmania per macrophage (obtained from the third step) multiplied by the percentage of infected macrophages. Figure 5 presents the graphs of the infection rates, while the other graphs can be found in Figure S7.4.

With `C=CCNC(NNS(=O)(=O)c1ccc(C)cc1)=[S][Au+][S]=C(NCC=C)NNS(=O)(=O)c1ccc(C)cc1.[Cl-]` [Au6, [Au(HL6^Al)2]Cl] as the compound, how does the CC50 (Vero cells) read?
Its CC50 is 77.5 µM.

And the “Solubility in buffer at the concentrations for the fluorescence experiments, in words” value [1]?
The value was “not soluble in the buffer used for the experiment”.

And the IC50 (Leishmania infantum)?
The IC50 was 62.54 ± 0.151 µM.

And the “SI L. infantum” value (Leishmania infantum)?
The value was 1.24.

What about the IC50 (Leishmania braziliensis) of the same compound?
The IC50 was 5554 ± 1.37 µM.

And the “SI L. braziliensis” value (Leishmania braziliensis)?
Its value is 0.01.

For `Cc1ccc(S(=O)(=O)NNC(NC2CCCCC2)=[S][Ag+][S]=C(NNS(=O)(=O)c2ccc(C)cc2)NC2CCCCC2)cc1.O=[N+]([O-])[O-]` [Ag1, [Ag(HL1^Ch)2]NO3], which CC50 (Vero cells) is on record?
Its CC50 is 7.4 µM.

And the IC50 (Leishmania infantum)?
The IC50 was 57.42 ± 0.028 µM.

And the “SI L. infantum” value (Leishmania infantum)?
The value was 0.129.

What about the IC50 (Leishmania braziliensis) of the same compound?
Its IC50 is 50.15 ± 0.02 µM.

And the “SI L. braziliensis” value (Leishmania braziliensis)?
Its value is 0.15.

Which CC50 (Vero cells) does the source give for `Cc1ccc(S(=O)(=O)NNC(Nc2ccccc2)=[S][Au+][S]=C(NNS(=O)(=O)c2ccc(C)cc2)Nc2ccccc2)cc1.[Cl-]` [Au2, [Au(HL2^Ph)2]Cl] here?
The CC50 was 296 µM.

What about the “Infection rate of L. infantum in macrophages, in words” value [2] of the same compound?
Its value is “able to inhibit the parasite infection inside the cells even at lower concentrations than that determined by their IC50 values; also recorded: able to inhibit the parasite infection even at lower concentrations than that of their IC50 values”.

And the IC50 (Leishmania infantum)?
The IC50 was 41.69 ± 0.21 µM.

What about the “SI L. infantum” value (Leishmania infantum) of the same compound?
Its value is 7.09.

And the IC50 (Leishmania braziliensis)?
Its IC50 is 143.2 ± 0.085 µM.

And the “SI L. braziliensis” value (Leishmania braziliensis)?
The value was 2.06.

Which CC50 (Vero cells) does the source give for `Cc1ccc(S(=O)(=O)NNC(Nc2ccccc2)=[S][Ag+][S]=C(NNS(=O)(=O)c2ccc(C)cc2)Nc2ccccc2)cc1.O=[N+]([O-])[O-]` [Ag2, [Ag(HL2^Ph)2]NO3] here?
Its CC50 is 92.1 µM.

And the IC50 (Leishmania infantum)?
The IC50 was 280.5 ± 0.167 µM.

And the “SI L. infantum” value (Leishmania infantum)?
The value was 0.33.

And the IC50 (Leishmania braziliensis)?
The IC50 was 183.7 ± 0.027 µM.

And the “SI L. braziliensis” value (Leishmania braziliensis)?
The value was 0.50.

Which CC50 (Vero cells) does the source give for `Cc1ccc(S(=O)(=O)NNC(Nc2ccc(Cl)cc2)=[S][Ag+][S]=C(NNS(=O)(=O)c2ccc(C)cc2)Nc2ccc(Cl)cc2)cc1.O=[N+]([O-])[O-]` [Ag4, [Ag(HL4^ClPh)2]NO3] here?
Its CC50 is > 500 µM.

And the “Infection rate of L. infantum in macrophages, in words” value [2]?
The value was “did not show a promising infection rate”.

And the IC50 (Leishmania infantum)?
The IC50 was 72.17 ± 0.036 µM.

And the IC50 (Leishmania braziliensis)?
The IC50 was 84.62 ± 0.116 µM.

What about the “SI L. braziliensis” value (Leishmania braziliensis) of the same compound?
Its value is >5.91.

With `Cc1ccc(S(=O)(=O)NNC(Nc2ccc([N+](=O)[O-])cc2)=[S][Au+][S]=C(NNS(=O)(=O)c2ccc(C)cc2)Nc2ccc([N+](=O)[O-])cc2)cc1.[Cl-]` [Au5, [Au(HL5^NO2Ph)2]Cl] as the compound, how does the CC50 (Vero cells) read?
The CC50 was 58.6 µM.

What about the IC50 (Leishmania infantum) of the same compound?
The IC50 was 295.5 ± 0.259 µM.

And the “SI L. infantum” value (Leishmania infantum)?
Its value is 0.198.

And the IC50 (Leishmania braziliensis)?
Its IC50 is 284 ± 0.259 µM.

And the “SI L. braziliensis” value (Leishmania braziliensis)?
The value was 0.21.

Which results are given for `C=CCNC(NNS(=O)(=O)c1ccc(C)cc1)=[S][Ag+][S]=C(NCC=C)NNS(=O)(=O)c1ccc(C)cc1.O=[N+]([O-])[O-]` [Ag6, [Ag(HL6^Al)2]NO3]?
CC50 (Vero cells): > 500 µM; Infection rate of L. infantum in macrophages, in words [2]: able to inhibit the parasite infection inside the cells even at lower concentrations than that determined by their IC50 values; also recorded: able to inhibit the parasite infection even at lower concentrations than that of their IC50 values; Solubility in buffer at the concentrations for the fluorescence experiments, in words [1]: not soluble in the buffer used for the experiment; IC50 (Leishmania infantum): 78.59 ± 0.605 µM; SI L. infantum (Leishmania infantum): >6.36; IC50 (Leishmania braziliensis): 305.2 ± 0.032 µM; SI L. braziliensis (Leishmania braziliensis): >1.64

Which CC50 (Vero cells) does the source give for `Cc1ccc(S(=O)(=O)NNC(Nc2ccc(F)cc2)=[S][Au+][S]=C(NNS(=O)(=O)c2ccc(C)cc2)Nc2ccc(F)cc2)cc1.[Cl-]` [Au3, [Au(HL3^FPh)2]Cl] here?
The CC50 was 28.8 µM.

And the IC50 (Leishmania infantum)?
Its IC50 is 173.9 ± 0.087 µM.

What about the “SI L. infantum” value (Leishmania infantum) of the same compound?
The value was 0.17.

And the IC50 (Leishmania braziliensis)?
The IC50 was 194.9 ± 0.063 µM.

And the “SI L. braziliensis” value (Leishmania braziliensis)?
The value was 0.15.

For `Cc1ccc(S(=O)(=O)NNC(Nc2ccc([N+](=O)[O-])cc2)=[S][Ag+][S]=C(NNS(=O)(=O)c2ccc(C)cc2)Nc2ccc([N+](=O)[O-])cc2)cc1.O=[N+]([O-])[O-]` [Ag5, [Ag(HL5^NO2Ph)2]NO3], which CC50 (Vero cells) is on record?
The CC50 was 493 µM.

What about the IC50 (Leishmania infantum) of the same compound?
The IC50 was 78.79 ± 0.091 µM.

And the IC50 (Leishmania braziliensis)?
Its IC50 is 90.73 ± 0.236 µM.

And the “SI L. braziliensis” value (Leishmania braziliensis)?
The value was 5.44.
